Residues, ends and D or L forms follow the SMILES beside them.
Key:
[1] = Ratio of orexin-1 receptor to orexin-2 receptor in human
Orexin receptor type 2 = biological target: T1, Orexin receptor type 2 (Homo sapiens, UniProt O43614); experiment: Effective agonist concentration to the human Orexin receptor type 2 was determined using the Xlfit program; assay type: functional
T1 sequence (O43614 whole entry): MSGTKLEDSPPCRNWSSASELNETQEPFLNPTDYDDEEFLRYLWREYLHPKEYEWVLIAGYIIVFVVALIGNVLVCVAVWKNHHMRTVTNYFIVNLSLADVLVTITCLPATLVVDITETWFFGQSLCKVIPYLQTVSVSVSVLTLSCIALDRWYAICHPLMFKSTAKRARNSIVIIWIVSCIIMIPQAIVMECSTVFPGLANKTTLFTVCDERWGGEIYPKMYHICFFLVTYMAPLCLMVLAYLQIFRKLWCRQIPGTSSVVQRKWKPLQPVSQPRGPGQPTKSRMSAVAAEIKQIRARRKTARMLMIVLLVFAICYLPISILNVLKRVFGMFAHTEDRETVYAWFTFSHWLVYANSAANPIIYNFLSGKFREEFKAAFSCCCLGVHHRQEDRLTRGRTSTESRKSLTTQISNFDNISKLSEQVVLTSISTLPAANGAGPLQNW

[2] = biological target: T2, Orexin/Hypocretin receptor type 1 (Homo sapiens, UniProt O43613); experiment: Effective agonist concentration to human orexin receptor type 1 determined using the Xlfit program; assay type: functional
T2 sequence (O43613 whole entry): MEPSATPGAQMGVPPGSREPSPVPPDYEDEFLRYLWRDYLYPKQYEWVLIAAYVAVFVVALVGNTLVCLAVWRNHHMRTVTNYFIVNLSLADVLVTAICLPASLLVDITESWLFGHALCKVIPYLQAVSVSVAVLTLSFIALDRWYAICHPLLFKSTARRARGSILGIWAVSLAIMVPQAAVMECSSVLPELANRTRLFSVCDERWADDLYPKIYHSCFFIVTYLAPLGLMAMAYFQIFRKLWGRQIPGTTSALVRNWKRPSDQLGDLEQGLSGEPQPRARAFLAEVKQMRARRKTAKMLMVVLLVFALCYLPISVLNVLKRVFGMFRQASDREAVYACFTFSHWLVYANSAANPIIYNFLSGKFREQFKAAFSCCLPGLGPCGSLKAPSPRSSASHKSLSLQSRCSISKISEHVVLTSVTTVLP

Ratio [1]	EC50 (Orexin receptor type 2)	EC50 [2]	Structure (SMILES)
2.3	–	–	CC[C@H](C)[C@H](NC(=O)CNC(=O)[C@H](C)NC(=O)[C@H](C)NC(=O)[C@H](Cc1c[nH]cn1)NC(=O)[C@H](CC(N)=O)NC(=O)CNC(=O)[C@H](C)NC(=O)CNC(=O)[C@H](Cc1c[nH]cn1)NC(=O)[C@H](CC(C)C)NC(=O)[C@H](CC(C)C)NC(=O)[C@H](CCC(=O)O)NC(=O)[C@H](Cc1ccc(O)cc1)NC(=O)[C@H](CC(C)C)NC(=O)[C@H](CCCN=C(N)N)NC(=O)[C@H](CS)NC(=O)[C@@H](N)CO)C(=O)N[C@@H](CC(C)C)C(=O)N[C@H](C(=O)N[C@@H](CC(C)C)C(=O)O)[C@@H](C)O (H-SCRLYELLHGAGNHAAGILTL-OH)
4.3	–	–	CC[C@H](C)[C@H](NC(=O)CNC(=O)[C@H](C)NC(=O)[C@H](C)NC(=O)[C@H](Cc1c[nH]cn1)NC(=O)[C@H](CC(N)=O)NC(=O)CNC(=O)[C@H](C)NC(=O)CNC(=O)[C@H](Cc1c[nH]cn1)NC(=O)[C@H](CC(C)C)NC(=O)[C@H](CC(C)C)NC(=O)[C@H](CCC(=O)O)NC(=O)[C@H](Cc1ccc(O)cc1)NC(=O)[C@H](CC(C)C)NC(=O)[C@@H](N)CCCN=C(N)N)C(=O)N[C@@H](CC(C)C)C(=O)N[C@H](C(=O)N[C@@H](CC(C)C)C(=O)O)[C@@H](C)O (H-RLYELLHGAGNHAAGILTL-OH)
15	–	–	CC[C@H](C)[C@H](NC(=O)CNC(=O)[C@H](C)NC(=O)[C@H](C)NC(=O)[C@H](Cc1c[nH]cn1)NC(=O)[C@H](CC(N)=O)NC(=O)CNC(=O)[C@H](CO)NC(=O)[C@H](C)NC(=O)[C@H](CCC(N)=O)NC(=O)[C@H](CC(C)C)NC(=O)[C@H](CC(C)C)NC(=O)[C@H](CCCN=C(N)N)NC(=O)[C@@H]1CCCN1C(=O)[C@H](CC(C)C)NC(=O)[C@H](CCCN=C(N)N)NC(=O)CNC(=O)[C@H](CCC(N)=O)NC(=O)[C@H](CC(C)C)NC(=O)CN)C(=O)N[C@@H](CC(C)C)C(=O)N[C@H](C(=O)N[C@@H](CCSC)C(=O)O)[C@@H](C)O (stereo in doubt; form 2)
8.6	–	–	CC[C@H](C)[C@H](NC(=O)CNC(=O)[C@H](C)NC(=O)[C@H](C)NC(=O)[C@H](Cc1c[nH]cn1)NC(=O)[C@H](CC(N)=O)NC(=O)CNC(=O)[C@H](CO)NC(=O)[C@H](C)NC(=O)[C@H](C)NC(=O)[C@H](CC(C)C)NC(=O)[C@H](CC(C)C)NC(=O)[C@H](CCCN=C(N)N)NC(=O)[C@H](CCC(N)=O)NC(=O)[C@H](CC(C)C)NC(=O)[C@H](CCCN=C(N)N)NC(=O)CNC(=O)[C@H](CCC(N)=O)NC(=O)[C@H](CC(C)C)NC(=O)CN)C(=O)N[C@@H](CC(C)C)C(=O)N[C@H](C(=O)N[C@@H](CCSC)C(=O)O)[C@@H](C)O (H-GLQGRLQRLLAASGNHAAGILTM-OH)
> 280	–	–	CC[C@H](C)[C@H](NC(=O)CNC(=O)[C@@H]1CCCN1C(=O)[C@H](C)NC(=O)[C@H](Cc1c[nH]cn1)NC(=O)[C@H](CC(N)=O)NC(=O)CNC(=O)[C@H](CO)NC(=O)[C@H](C)NC(=O)[C@H](CCC(N)=O)NC(=O)[C@H](CC(C)C)NC(=O)[C@H](CC(C)C)NC(=O)[C@H](CCCN=C(N)N)NC(=O)[C@H](CCC(N)=O)NC(=O)[C@H](CC(C)C)NC(=O)[C@H](CCCN=C(N)N)NC(=O)CNC(=O)[C@H](CCC(N)=O)NC(=O)[C@H](CC(C)C)NC(=O)CN)C(=O)N[C@@H](CC(C)C)C(=O)N[C@H](C(=O)N[C@@H](CCSC)C(=O)O)[C@@H](C)O (H-GLQGRLQRLLQASGNHAPGILTM-OH)
28.3	–	–	CC[C@H](C)[C@H](NC(=O)CNC(=O)[C@H](C)NC(=O)[C@H](C)NC(=O)[C@H](Cc1c[nH]cn1)NC(=O)[C@H](CC(N)=O)NC(=O)CNC(=O)[C@H](CO)NC(=O)[C@H](C)NC(=O)[C@H](CCC(N)=O)NC(=O)[C@H](CC(C)C)NC(=O)[C@H](CC(C)C)NC(=O)[C@H](CCCN=C(N)N)NC(=O)[C@H](CCC(N)=O)NC(=O)[C@H](CC(C)C)NC(=O)[C@H](CCCN=C(N)N)NC(=O)CNC(=O)[C@H](CCC(N)=O)NC(=O)[C@@H]1CCCN1C(=O)CN)C(=O)N[C@@H](CC(C)C)C(=O)N[C@H](C(=O)N[C@@H](CCSC)C(=O)O)[C@@H](C)O (H-GPQGRLQRLLQASGNHAAGILTM-OH)
18.8	–	–	CC[C@H](C)[C@H](NC(=O)CNC(=O)[C@H](C)NC(=O)[C@H](C)NC(=O)[C@H](Cc1c[nH]cn1)NC(=O)[C@H](CC(N)=O)NC(=O)CNC(=O)[C@H](CO)NC(=O)[C@H](C)NC(=O)[C@H](CCC(N)=O)NC(=O)[C@H](CC(C)C)NC(=O)[C@H](CC(C)C)NC(=O)[C@H](CCCN=C(N)N)NC(=O)[C@@H]1CCCN1C(=O)[C@H](CC(C)C)NC(=O)[C@H](CCCN=C(N)N)NC(=O)CNC(=O)[C@H](CCC(N)=O)NC(=O)[C@H](CC(C)C)NC(=O)CN)C(=O)N[C@@H](CC(C)C)C(=O)N[C@H](C(=O)N[C@@H](CCSC)C(=O)O)[C@@H](C)O (stereo in doubt; form 1)
> 230	–	–	CC[C@H](C)[C@H](NC(=O)CNC(=O)[C@H](C)NC(=O)[C@@H]1CCCN1C(=O)[C@H](Cc1c[nH]cn1)NC(=O)[C@H](CC(N)=O)NC(=O)CNC(=O)[C@H](CO)NC(=O)[C@H](C)NC(=O)[C@H](CCC(N)=O)NC(=O)[C@H](CC(C)C)NC(=O)[C@H](CC(C)C)NC(=O)[C@H](CCCN=C(N)N)NC(=O)[C@H](CCC(N)=O)NC(=O)[C@H](CC(C)C)NC(=O)[C@H](CCCN=C(N)N)NC(=O)CNC(=O)[C@H](CCC(N)=O)NC(=O)[C@H](CC(C)C)NC(=O)CN)C(=O)N[C@@H](CC(C)C)C(=O)N[C@H](C(=O)N[C@@H](CCSC)C(=O)O)[C@@H](C)O (H-GLQGRLQRLLQASGNHPAGILTM-OH)
> 1750	–	–	CC[C@H](C)[C@H](NC(=O)CNC(=O)[C@H](C)NC(=O)[C@H](C)NC(=O)[C@H](Cc1c[nH]cn1)NC(=O)[C@H](CC(N)=O)NC(=O)CNC(=O)[C@H](CO)NC(=O)[C@H](C)NC(=O)[C@H](CCC(N)=O)NC(=O)[C@H](CC(C)C)NC(=O)[C@H](CC(C)C)NC(=O)[C@H](CCCN=C(N)N)NC(=O)[C@H](CCC(N)=O)NC(=O)[C@H](CC(C)C)NC(=O)[C@@H](N)CCCN=C(N)N)C(=O)N[C@@H](CC(C)C)C(=O)N[C@H](C(=O)N[C@@H](CCSC)C(=O)O)[C@@H](C)O (H-RLQRLLQASGNHAAGILTM-OH)
6.8	–	–	CC[C@H](C)[C@H](NC(=O)CNC(=O)[C@H](C)NC(=O)[C@H](C)NC(=O)[C@H](Cc1c[nH]cn1)NC(=O)[C@H](CC(N)=O)NC(=O)CNC(=O)[C@H](CO)NC(=O)[C@H](C)NC(=O)[C@H](CCC(N)=O)NC(=O)[C@H](CC(C)C)NC(=O)[C@H](CC(C)C)NC(=O)[C@H](CCCN=C(N)N)NC(=O)[C@H](CCC(N)=O)NC(=O)[C@H](CC(C)C)NC(=O)[C@H](CCCN=C(N)N)NC(=O)CNC(=O)[C@H](C)NC(=O)[C@H](CC(C)C)NC(=O)CN)C(=O)N[C@@H](CC(C)C)C(=O)N[C@H](C(=O)N[C@@H](CCSC)C(=O)O)[C@@H](C)O (H-GLAGRLQRLLQASGNHAAGILTM-OH)
> 430	–	–	CC[C@H](C)[C@H](NC(=O)CNC(=O)[C@H](C)NC(=O)[C@H](C)NC(=O)[C@H](Cc1c[nH]cn1)NC(=O)[C@H](CC(N)=O)NC(=O)CNC(=O)[C@H](CO)NC(=O)[C@H](C)NC(=O)[C@H](CCC(N)=O)NC(=O)[C@H](C)NC(=O)[C@H](CC(C)C)NC(=O)[C@H](CCCN=C(N)N)NC(=O)[C@H](CCC(N)=O)NC(=O)[C@H](CC(C)C)NC(=O)[C@H](CCCN=C(N)N)NC(=O)CNC(=O)[C@H](CCC(N)=O)NC(=O)[C@H](CC(C)C)NC(=O)CN)C(=O)N[C@@H](CC(C)C)C(=O)N[C@H](C(=O)N[C@@H](CCSC)C(=O)O)[C@@H](C)O (H-GLQGRLQRLAQASGNHAAGILTM-OH)
3.2	–	–	CC[C@H](C)[C@H](NC(=O)CNC(=O)[C@H](C)NC(=O)[C@H](C)NC(=O)[C@H](Cc1c[nH]cn1)NC(=O)[C@H](CC(N)=O)NC(=O)CNC(=O)[C@H](C)NC(=O)CNC(=O)[C@H](Cc1c[nH]cn1)NC(=O)[C@H](CC(C)C)NC(=O)[C@H](CC(C)C)NC(=O)[C@H](CCC(=O)O)NC(=O)[C@H](Cc1ccc(O)cc1)NC(=O)[C@H](CC(C)C)NC(=O)[C@H](CCCN=C(N)N)NC(=O)[C@H](CS)NC(=O)[C@H](CO)NC(=O)[C@H](CS)NC(=O)[C@@H](N)[C@@H](C)O)C(=O)N[C@@H](CC(C)C)C(=O)N[C@H](C(=O)N[C@@H](CC(C)C)C(=O)O)[C@@H](C)O (H-TCSCRLYELLHGAGNHAAGILTL-OH)
–	> 1000 µM	> 1000 µM	CC(C)C[C@H](NC(=O)[C@@H]1CCCN1C(=O)[C@@H]1CCC(=O)N1)C(=O)N1CCC[C@H]1C(=O)N[C@@H](CC(=O)O)C(=O)N[C@@H](CS)C(=O)N[C@@H](CS)C(=O)N[C@@H](CCCN=C(N)N)C(=O)N[C@@H](CCC(N)=O)C(=O)N[C@@H](CCCCN)C(=O)N[C@H](C(=O)N[C@@H](CS)C(=O)N[C@@H](CO)C(=O)O)[C@@H](C)O

— ChEMBL document CHEMBL1148480, “Structure-activity studies of orexin a and orexin B at the human orexin 1 and orexin 2 receptors led to orexin 2 receptor selective and orexin 1 receptor preferring ligands” (J Med Chem, 2004)
